Measured values from US5153353A, “p-Oxybenzoic acid derivatives, process for the preparation thereof and use thereof as drug” (Klinge Pharma GmbH, priority 1990, dated 1992).

Columns and labels:
[1] = test system: normolipemic, male Wister rats; test: Determination of the hypolipemic effect in rats (serum total cholesterol and triglycerides after oral administration); type: in vivo, rat; settings: three administrations over three days
Protocol: 1) Determination of the hypolipemic effect in rats
The lipid-lowering effect of the test substances was examined in groups each of 10 normolipemic, male Wister rats of 200 to 220 g in weight.
The investigations were performed after a 3-week adaption training of the eating habits of the animals. The controlled feeding was carried out daily from 8 a.m. to 10 a.m. The test substances were administered at 11 a.m.
The test compounds were absorbed in an aqueous solution of 0.25% agar and 0.84% NaCl and administered orally. After three administrations over a period of three days blood was extracted from the animals.
The determination of cholesterol and triglycerides in the serum was made with the aid of the "Cobas-Bio" centrifugal analyzer of Hoffmann-La Roche.
a) Cholesterol determination CHOS-PAP method, enzymatic colour test according to J. Siedel et al. (J. Clin. Chem. Clin. Biochem. 19, 838 (1981))
b) Triglyceride determination Enzymatic cleavage of the triglycerides with the aid of specific lipases with subsequent determination of the liberated glycerol according to T. O. Tiffany et al. (Clin. Chem. 20, 476 (1974))

[2] = test system: cholesterol biosynthesis in rat liver homogenate; test: Determination of the inhibition of cholesterol biosynthesis in rat liver homogenate (14C-acetate incorporation); type: biochemical; settings: compared with the blank value
Protocol: 2) Determination of the inhibition of cholesterol biosynthesis
3 g freshly prepared rat liver was homogenized in 6 ml ice-cooled puffer and centrifuged for 20 minutes at 20000×g. The supernatant was separated off and employed for the following determinations.
To a mixture of 110 μl supernatant and 300 μl incubation solution 10 μl of the methanolic test substance solution were pipetted and incubated at 37° C. for 20 minutes. Thereafter 10 μl of an ^14 C-acetate solution were added by pipette and incubated for a further 30 minutes. Thereafter, to the mixture 500 μl ethanolic KOH solution were added, further incubation carried out for 60 minutes at 75° C. and thereafter the reaction stopped in an ice bath. To enable a yield correction to be made for the subsequent extraction of the ^14 C-cholesterol formed ^3 H-cholesterol (about 10^-3 μCi) was added thereto by pipetting. In addition, 500 μl of an ethanolic solution of unmarked cholesterol was added. The cholesterol of the mixture was extracted twice with 1 ml petroleum ether in each case, the extract dried and taken up with 0.6 ml of an ethanol/acetone mixture (1/1). The dissolved cholesterol was then precipitated by means of 1.4 ml of a digitonin solution (=7 mg). After 15 h at 0° C. the precipitate was centrifuged off, dissolved with 0.5 ml methanol/glacial acetic acid (33/5) and diluted with 2 ml methanol. The radioactivity of the biosynthetically formed cholesterol was determined in 12 ml scintillation liquid (DIMILUME) by means of a scintillation counter.
Buffer: 6.8 g KH2 PO4, 0.6 g MgCl2, 0.37 g EDTA, 1.83 g nicotine amide, 51.35 g saccharose and 0.4 g mercaptoethanol were dissolved in distilled water and diluted to 500 ml (PH =7.2).
Incubation solution: The following were each individually dissolved:
8.6 mg NAD with 1.3 ml buffer
10.2 mg NADP with 1.3 ml buffer
39.6 mg glucose-6-phosphate with 0.65 ml buffer
31.6 mg glucose-6-phosphate-dehydrogenase (1000 U/0.91 ml) with 0.285 ml buffer
These solutions were not mixed until immediately prior to use.
Solution 1: 250 μCi ^14 C-sodium acetate in 1 ml aqua dest.
Solution 2: 512.5 mg sodium acetate in 10 ml aqua dest.
Prior to the test 0.1 ml of the solution 1 and 0.4 ml of the solution 2 were mixed and added to 2 ml aqua dest.
Ethanolic KOH: 10 g KOH were dissolved in 100 ml. ethanol
Method: R. E. Dugan et al. (Archives Biochem. Biophys. 152,21 (1972))

## CC(C)(C)c1ccc(CCC(O)COc2ccc(C(=O)OCC(O)CO)cc2)cc1 (stereo not drawn) [Compound 1, 4-[4-(4'-tert. butylphenyl)-2-hydoxybutoxy]benzoic acid-2,3-dihydroxypropylester]
[1]; 10 mg/kg
  Percentage change of the total cholesterol (TC) level in the rat serum, X ± SD: +3.8 ± 16.4%
  Percentage change of the triglyceride (TG) level in the rat serum, X ± SD: -26.2 ± 51.1%
[1]; 30 mg/kg
  Percentage change of the total cholesterol (TC) level in the rat serum, X ± SD: -17.1 ± 13.9%
  Percentage change of the triglyceride (TG) level in the rat serum, X ± SD: -28.5 ± 9.0%
[1]; 100 mg/kg
  Percentage change of the total cholesterol (TC) level in the rat serum, X ± SD: -44.1 ± 10.8%
  Percentage change of the triglyceride (TG) level in the rat serum, X ± SD: -34.7 ± 8.6%
[2]; concentration 1 × 10^-4 Mol/l
  Percentage inhibition of cholesterol biosynthesis in rat liver homogenate: 68%
[2]; concentration 1 × 10^-5 Mol/l
  Percentage inhibition of cholesterol biosynthesis in rat liver homogenate: 34%
[2]; concentration 3 × 10^-5 Mol/l
  Percentage inhibition of cholesterol biosynthesis in rat liver homogenate: 57%
[2]; concentration 3 × 10^-6 Mol/l
  Percentage inhibition of cholesterol biosynthesis in rat liver homogenate: 0%

## CC(C)(C(=O)O)c1ccc(CCC(O)COc2ccc(C(=O)O)cc2)cc1 (stereo not drawn) [Compound 3, 4-{4-[4'-(1-carboxy-1-methylethyl)phenyl]-2-hydroxybutoxy}benzoic acid]
[1]; 100 mg/kg
  Percentage change of the total cholesterol (TC) level in the rat serum, X ± SD: -17.5 ± 6.2%
  Percentage change of the triglyceride (TG) level in the rat serum, X ± SD: -19.4 ± 9.7%
[2]; concentration 1 × 10^-4 Mol/l
  Percentage inhibition of cholesterol biosynthesis in rat liver homogenate: 70%
[2]; concentration 1 × 10^-5 Mol/l
  Percentage inhibition of cholesterol biosynthesis in rat liver homogenate: 29%
[2]; concentration 3 × 10^-5 Mol/l
  Percentage inhibition of cholesterol biosynthesis in rat liver homogenate: 56%
[2]; concentration 3 × 10^-6 Mol/l
  Percentage inhibition of cholesterol biosynthesis in rat liver homogenate: 14%

## CC(C)(CO)c1ccc(CCC(O)COc2ccc(C(=O)O)cc2)cc1 (stereo not drawn) [Compound 2]
[1]; 100 mg/kg
  Percentage change of the total cholesterol (TC) level in the rat serum, X ± SD: -39.7 ± 12.4%
  Percentage change of the triglyceride (TG) level in the rat serum, X ± SD: -1.6 ± 21.4%
[2]; concentration 1 × 10^-4 Mol/l
  Percentage inhibition of cholesterol biosynthesis in rat liver homogenate: 75%
[2]; concentration 1 × 10^-5 Mol/l
  Percentage inhibition of cholesterol biosynthesis in rat liver homogenate: 41%
[2]; concentration 3 × 10^-5 Mol/l
  Percentage inhibition of cholesterol biosynthesis in rat liver homogenate: 65%
[2]; concentration 3 × 10^-6 Mol/l
  Percentage inhibition of cholesterol biosynthesis in rat liver homogenate: 16%

## CCOC(=O)C(C)(C)Oc1ccc(Cl)cc1 [CLOFIBRAT, reference compound]
[1]; 100 mg/kg
  Percentage change of the total cholesterol (TC) level in the rat serum, X ± SD: -14.5 ± 12.0%
  Percentage change of the triglyceride (TG) level in the rat serum, X ± SD: -29.2 ± 19.4%
